Assay results taken from patent US12577206B2 (BRISTOL-MYERS SQUIBB COMPANY, priority 2020, dated 2026).

Key:
[1] = biological target: T1, human FPR1 (Homo sapiens, UniProt P21462); test: FPR1 cyclic adenosine monophosphate (cAMP) assay; assay type: cell-based; conditions: CHO cells overexpressing human FPR1; forskolin 10 μM; inhibition of cAMP production; HTRF; read-out: hFPR1 cAMP2 EC50
T1 sequence (P21462 1-350): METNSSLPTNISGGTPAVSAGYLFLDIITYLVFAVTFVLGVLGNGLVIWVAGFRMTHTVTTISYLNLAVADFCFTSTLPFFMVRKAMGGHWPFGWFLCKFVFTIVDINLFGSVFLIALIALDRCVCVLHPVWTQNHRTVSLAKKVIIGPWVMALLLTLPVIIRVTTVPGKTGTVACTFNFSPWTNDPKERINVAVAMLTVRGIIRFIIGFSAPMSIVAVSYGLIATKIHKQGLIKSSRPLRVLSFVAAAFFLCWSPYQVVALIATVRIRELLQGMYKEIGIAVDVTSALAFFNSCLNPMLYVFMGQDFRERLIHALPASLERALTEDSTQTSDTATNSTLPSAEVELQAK
Procedure, shortened: (§1)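 CHO/hFPR1 4,000 cells/well, forskolin 10 μM final; CHO/hFPR2 2,000 cells/well, forskolin 5 μM final. IBMX 200 μM, DMSO 1%, DPBS + Ca/Mg + 0.1% BSA, 30 min rt. HTRF cAMP; 4-PL fit.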

[2] = biological target: T2, human FPR2 (Homo sapiens, UniProt P25090); test: FPR2 cyclic adenosine monophosphate (cAMP) assay; assay type: cell-based; conditions: CHO cells overexpressing human FPR2; forskolin 5 μM; inhibition of cAMP production; HTRF; read-out: hFPR2 cAMP2 EC50
T2 sequence (P25090 1-351): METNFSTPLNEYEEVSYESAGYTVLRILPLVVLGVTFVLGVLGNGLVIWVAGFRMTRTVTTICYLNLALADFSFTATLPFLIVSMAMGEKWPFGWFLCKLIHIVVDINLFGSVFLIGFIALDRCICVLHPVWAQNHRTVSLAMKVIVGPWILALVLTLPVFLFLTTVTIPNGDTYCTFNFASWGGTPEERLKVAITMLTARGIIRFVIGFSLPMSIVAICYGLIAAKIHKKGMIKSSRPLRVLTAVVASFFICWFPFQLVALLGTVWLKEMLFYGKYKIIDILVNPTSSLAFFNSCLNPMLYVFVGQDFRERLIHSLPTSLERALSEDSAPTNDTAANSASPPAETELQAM
Procedure, shortened: as §1

## COC(=O)[C@@H]1CCCN1c1ccc(C(F)(F)F)c(-n2c(=O)c(NC(=O)c3ccc(OC(F)F)cc3)c(-c3c(F)cc(OC)cc3F)n2C)n1 [Example 259, methyl (2S)-1-{6-[3-(2,6-difluoro-4-methoxyphenyl)-4-[4-(difluoromethoxy)benzamido]-2-methyl-5-oxo-2,5-dihydro-1H-pyrazol-1-yl]-5-(trifluoromethyl)pyridin-2-yl}pyrrolidine-2-carboxylate]
[1]
  EC50: > 10000 nM
[2]
  EC50: 10 nM

## Cn1c(-c2ccc(C(F)(F)F)cc2)c(NC(=O)c2ccc(OC(F)F)cc2)c(=O)n1-c1ncccc1C(F)(F)F [Example 301, 4-(difluoromethoxy)-N-{1-methyl-3-oxo-5-[4-(trifluoromethyl)phenyl]-2-[3-(trifluoromethyl)pyridin-2-yl]-2,3-dihydro-1H-pyrazol-4-yl}benzamide]
[1]
  EC50: 140 nM
[2]
  EC50: 6 nM

## COc1cc(F)c(-c2c(NC(=O)c3ccc(OC(F)F)cc3)c(=O)n(CCO)n2C)c(F)c1 [Example 58, N-[5-(2,6-difluoro-4-methoxyphenyl)-2-(2-hydroxyethyl)-1-methyl-3-oxo-2,3-dihydro-1H-pyrazol-4-yl]-4-(difluoromethoxy)benzamide]
[1]
  EC50: > 10000 nM
[2]
  EC50: 230 nM

## COc1cc(F)c(-c2c(NC(=O)c3ccc(OC(F)F)cc3)c(=O)n(-c3nc(C(F)(F)F)ccc3Br)n2C)c(F)c1 [Example 159, N-{2-[3-bromo-6-(trifluoromethyl)pyridin-2-yl]-5-(2,6-difluoro-4-methoxyphenyl)-1-methyl-3-oxo-2,3-dihydro-1H-pyrazol-4-yl}-4-(difluoromethoxy)benzamide]
[1]
  EC50: > 10000 nM
[2]
  EC50: 7 nM

## CCOc1ccnc(-n2c(=O)c(NC(=O)c3ccc(OC(F)F)cc3)c(-c3c(F)cc(OC)cc3F)n2C)c1 [Example 78, N-[5-(2,6-difluoro-4-methoxyphenyl)-2-(4-ethoxypyridin-2-yl)-1-methyl-3-oxo-2,3-dihydro-1H-pyrazol-4-yl]-4-(difluoromethoxy)benzamide]
[1]
  EC50: 9500 nM
[2]
  EC50: 10 nM

## COc1cc(C2CCN(S(C)(=O)=O)CC2)nc(-n2c(=O)c(NC(=O)c3ccc(OC(F)F)cc3)c(-c3c(F)cc(OC)cc3F)n2C)c1 [Example 366, N-(5-(2,6-Difluoro-4-methoxyphenyl)-2-(4-methoxy-6-(1-(methylsulfonyl)piperidin-4-yl)pyridin-2-yl)-1-methyl-3-oxo-2,3-dihydro-1H-pyrazol-4-yl)-4-(difluoromethoxy)benzamide]
[1]
  EC50: > 10000 nM
[2]
  EC50: 7 nM

## CCc1ccc(OCC(C)(C)O)nc1-n1c(=O)c(NC(=O)c2ccc(OC(F)F)cc2)c(-c2c(F)cc(OC)cc2F)n1C [Example 309, N-[5-(2,6-difluoro-4-methoxyphenyl)-2-[3-ethyl-6-(2-hydroxy-2-methylpropoxy)pyridin-2-yl]-1-methyl-3-oxo-2,3-dihydro-1H-pyrazol-4-yl]-4-(difluoromethoxy)benzamide]
[1]
  EC50: 2200 nM
[2]
  EC50: 10 nM

## Cc1cc(OCC(C)(C)O)nc(-n2c(=O)c(NC(=O)c3ccc(OC(F)F)cc3)c(-c3c(F)cc(OC(F)F)cc3F)n2C)c1 [Example 400, 4-(difluoromethoxy)-N-(5-(4-(difluoromethoxy)-2,6-difluorophenyl)-2-(6-(2-hydroxy-2-methylpropoxy)-4-methylpyridin-2-yl)-1-methyl-3-oxo-2,3-dihydro-1H-pyrazol-4-yl)benzamide]
[1]
  EC50: > 10000 nM
[2]
  EC50: 57 nM

## COc1ccc(-c2c(NC(=O)c3ccc(OC(F)F)cc3)c(=O)n(-c3ncccc3C(F)(F)F)n2C)c(F)c1 [Example 263, 4-(difluoromethoxy)-N-[5-(2-fluoro-4-methoxyphenyl)-1-methyl-3-oxo-2-[3-(trifluoromethyl)pyridin-2-yl]-2,3-dihydro-1H-pyrazol-4-yl]benzamide]
[1]
  EC50: 1700 nM
[2]
  EC50: 8 nM

## COc1cc(F)c(-c2c(NC(=O)c3ccc(OC(F)(F)F)cc3)c(=O)n(-c3ccc(C)cn3)n2C)c(F)c1 [Example 50, N-[5-(2,6-difluoro-4-methoxyphenyl)-1-methyl-2-(5-methylpyridin-2-yl)-3-oxo-2,3-dihydro-1H-pyrazol-4-yl]-4-(trifluoromethoxy)benzamide]
[1]
  EC50: 1300 nM
[2]
  EC50: 18 nM

## COc1cc(OCC(C)(C)F)nc(-n2c(=O)c(NC(=O)c3ccc(OC(F)F)cc3)c(-c3c(F)cc(OC)cc3F)n2C)c1 [Example 385, N-(5-(2,6-Difluoro-4-methoxyphenyl)-2-(6-(2-fluoro-2-methylpropoxy)-4-methoxypyridin-2-yl)-1-methyl-3-oxo-2,3-dihydro-1H-pyrazol-4-yl)-4-(difluoromethoxy)benzamide]
[1]
  EC50: > 10000 nM
[2]
  EC50: 3 nM

## COc1cc(F)c(-c2c(NC(=O)c3ccc(OC(F)F)cc3)c(=O)n(C3CC3)n2C)c(F)c1 [Example 13, N-[2-cyclopropyl-5-(2,6-difluoro-4-methoxyphenyl)-1-methyl-3-oxo-2,3-dihydro-1H-pyrazol-4-yl]-4-(difluoromethoxy)benzamide]
[1]
  EC50: 2400 nM
[2]
  EC50: 22 nM

## COc1cc(F)c(-c2c(NC(=O)c3ccc(OC(F)F)cc3)c(=O)n(-c3cc(OC)ccc3C#N)n2C)c(F)c1 [Example 183, N-[2-(2-cyano-5-methoxyphenyl)-5-(2,6-difluoro-4-methoxyphenyl)-1-methyl-3-oxo-2,3-dihydro-1H-pyrazol-4-yl]-4-(difluoromethoxy)benzamide]
[1]
  EC50: 3900 nM
[2]
  EC50: 11 nM

## COc1cc(F)c(-c2c(NC(=O)c3ccc(OC(F)F)cc3)c(=O)n(-c3cccc(F)c3Cl)n2C)c(F)c1 [Example 175, N-[2-(2-chloro-3-fluorophenyl)-5-(2,6-difluoro-4-methoxyphenyl)-1-methyl-3-oxo-2,3-dihydro-1H-pyrazol-4-yl]-4-(difluoromethoxy)benzamide]
[1]
  EC50: > 10000 nM
[2]
  EC50: 25 nM

## COc1cc(F)c(-c2c(NC(=O)c3ccc(OC(F)F)cc3)c(=O)n(-c3cc(OC)c(C)cn3)n2C)c(F)c1 [Example 77, N-[5-(2,6-difluoro-4-methoxyphenyl)-2-(4-methoxy-5-methylpyridin-2-yl)-1-methyl-3-oxo-2,3-dihydro-1H-pyrazol-4-yl]-4-(difluoromethoxy)benzamide]
[1]
  EC50: 620 nM
[2]
  EC50: 17 nM

## COc1cc(F)c(-c2c(NC(=O)c3ccc(OC(F)F)cc3)c(=O)n(-c3nc(N4CCN(S(C)(=O)=O)CC4)ccc3C(F)(F)F)n2C)c(F)c1 [Example 268, N-[5-(2,6-difluoro-4-methoxyphenyl)-2-[6-(4-methanesulfonylpiperazin-1-yl)-3-(trifluoromethyl)pyridin-2-yl]-1-methyl-3-oxo-2,3-dihydro-1H-pyrazol-4-yl]-4-(difluoromethoxy)benzamide]
[1]
  EC50: 1500 nM
[2]
  EC50: 2 nM

## COc1cc(F)c(-c2c(NC(=O)c3ccc(OC(F)F)cc3)c(=O)n(-c3nc(N4CCN(S(C)(=O)=O)CC4)ccc3Cl)n2C)c(F)c1 [Example 247, N-{2-[3-chloro-6-(4-methanesulfonylpiperazin-1-yl)pyridin-2-yl]-5-(2,6-difluoro-4-methoxyphenyl)-1-methyl-3-oxo-2,3-dihydro-1H-pyrazol-4-yl}-4-(difluoromethoxy)benzamide]
[1]
  EC50: 630 nM
[2]
  EC50: 5 nM
